Results published in ChEMBL document CHEMBL2331252, “Facile one-pot synthesis of novel dispirooxindole-pyrrolidine derivatives and their antimicrobial and anticancer activity against A549 human lung adenocarcinoma cancer cell line” (Bioorg Med Chem Lett, 2013).
Values after ≈ are worked out from the molar mass of the structure shown. Active and inactive are the calls of the source. The calls are words filed in the database; no cut-off is given here.

Key:
Assay type in all cases: functional
[1] = tested on: Klebsiella aerogenes; test: Antibacterial activity against Enterobacter aerogenes MTCC 111 at 1 mg/disc after 24 hrs by disc diffusion method
[2] = tested on: Staphylococcus aureus; test: Antibacterial activity against Staphylococcus aureus MTCC 96 at 1 mg/disc after 24 hrs by disc diffusion method
[3] = tested on: Candida albicans; test: Antifungal activity against Candida albicans MTCC 227 after 48 to 72 hrs
[4] = tested on: A549; test: Cytotoxicity against human A549 cells assessed as cell death at 100 ug/ml by MTT assay
[5] = tested on: A549; test: Cytotoxicity against human A549 cells assessed as cell death at 50 ug/ml by MTT assay
[6] = Antifungal activity against Malassezia pachydermatis at 1 mg/disc after 48 hrs by disc diffusion method
[7] = tested on: A549; test: Cytotoxicity against human A549 cells assessed as cell death at 200 ug/ml by MTT assay
[8] = tested on: Shigella flexneri; test: Antibacterial activity against Shigella flexneri MTCC 1457 after 24 hrs; settings: MTCC 1457, 24 h
[9] = tested on: Staphylococcus aureus; test: Antibacterial activity against Staphylococcus aureus MTCC 96 after 24 hrs; settings: MTCC 96, 24 h
[10] = tested on: Candida albicans; test: Antifungal activity against Candida albicans MTCC 227 at 1 mg/disc after 48 hrs by disc diffusion method
[11] = tested on: Klebsiella pneumoniae; test: Antibacterial activity against Klebsiella pneumoniae MTCC 109 after 24 hrs; settings: MTCC 109, 24 h
[12] = tested on: Klebsiella pneumoniae; test: Antibacterial activity against Klebsiella pneumoniae MTCC 109 at 1 mg/disc after 24 hrs by disc diffusion method
[13] = tested on: Micrococcus luteus; test: Antibacterial activity against Micrococcus luteus MTCC 106 at 1 mg/disc after 24 hrs by disc diffusion method
[14] = tested on: Salmonella typhimurium; test: Antibacterial activity against Salmonella typhimurium MTCC 1251 after 24 hrs
[15] = tested on: Micrococcus luteus; test: Antibacterial activity against Micrococcus luteus MTCC 106 after 24 hrs; settings: MTCC 106, 24 h
[16] = tested on: Salmonella typhimurium; test: Antibacterial activity against Salmonella typhimurium MTCC 1251 at 1 mg/disc after 24 hrs by disc diffusion method
[17] = tested on: Proteus vulgaris; test: Antibacterial activity against Proteus vulgaris MTCC 1771 after 24 hrs; settings: MTCC 1771, 24 h
[18] = tested on: Shigella flexneri; test: Antibacterial activity against Shigella flexneri MTCC 1457 at 1 mg/disc after 24 hrs by disc diffusion method
[19] = tested on: Klebsiella aerogenes; test: Antibacterial activity against Enterobacter aerogenes MTCC 111 after 24 hrs
[20] = tested on: Proteus vulgaris; test: Antibacterial activity against Proteus vulgaris MTCC 1771 at 1 mg/disc after 24 hrs by disc diffusion method
[21] = tested on: Staphylococcus aureus; test: Antibacterial activity against methicillin-resistant Staphylococcus aureus at 1 mg/disc after 24 hrs by disc diffusion method
[22] = tested on: Staphylococcus aureus; test: Antibacterial activity against methicillin-resistant Staphylococcus aureus after 24 hrs
[23] = Salmonella enterica subsp. enterica serovar Typhimurium
[24] = Salmonella enterica, MTCC 1251, 24 h

Structure (SMILES): CN1C[C@](C#N)(C(=O)c2c[nH]c3ccccc23)[C@]2(C(=O)Nc3ccccc32)C12C(=O)c1cccc3cccc2c13 (stereo not given in full)
- inhibition zone (IZ) [1]: 10 mm
- inhibition zone (IZ) [2]: 11 mm
- MIC [3]: 500 µg/mL (≈ 957 µM)
- Activity [4]: 21.61%
- Activity [5]: 7.55%
- inhibition [6]: inactive
- Activity [7]: 29.72%
- MIC [8]: 500 µg/mL (≈ 957 µM)
- MIC [9]: 125 µg/mL (≈ 239 µM)
- inhibition zone (IZ) [10]: 9 mm
- MIC [11]: 500 µg/mL (≈ 957 µM)
- inhibition zone (IZ) [12]: 8 mm
- inhibition zone (IZ) [13]: 9 mm
- MIC [14, 23]: inactive
- MIC [15]: 500 µg/mL (≈ 957 µM)
- inhibition [16, 23]: inactive
- MIC [17]: 500 µg/mL (≈ 957 µM)
- inhibition zone (IZ) [18]: 9 mm
- MIC ([19]; MTCC 111, 24 h): 500 µg/mL (≈ 957 µM)
- inhibition zone (IZ) [20]: 8 mm
- inhibition [21]: inactive
- MIC [22]: inactive

Structure (SMILES): CN1C(=O)[C@@]2(c3cc(Br)ccc31)N(C)C[C@](C#N)(C(=O)c1c[nH]c3ccccc13)[C@]21C(=O)Nc2ccccc21
- inhibition zone (IZ) [1]: 10 mm
- inhibition zone (IZ) [2]: 9 mm
- MIC [3]: inactive
- Activity [4]: 2.07%
- Activity [5]: 0.87%
- inhibition [6]: inactive
- Activity [7]: 10.92%
- MIC [8]: 125 µg/mL (≈ 215 µM)
- MIC [9]: 500 µg/mL (≈ 861 µM)
- inhibition [10]: inactive
- MIC [11]: 500 µg/mL (≈ 861 µM)
- inhibition zone (IZ) [12]: 8 mm
- inhibition zone (IZ) [13]: 11 mm
- MIC [14, 24]: 500 µg/mL (≈ 861 µM)
- MIC [15]: 125 µg/mL (≈ 215 µM)
- inhibition zone (IZ) [16]: 9 mm
- MIC [17]: 500 µg/mL (≈ 861 µM)
- inhibition zone (IZ) [18]: 11 mm
- MIC ([19]; MTCC 111, 24 h): 125 µg/mL (≈ 215 µM)
- inhibition zone (IZ) [20]: 9 mm
- inhibition zone (IZ) [21]: 8 mm
- MIC [22]: 500 µg/mL (≈ 861 µM)

Structure (SMILES): CN1C(=O)[C@@]2(c3cc(F)ccc31)N(C)C[C@](C#N)(C(=O)c1c[nH]c3ccccc13)[C@]21C(=O)Nc2ccccc21
- inhibition zone (IZ) [1]: 11 mm
- inhibition zone (IZ) [2]: 10 mm
- MIC [3]: 500 µg/mL (≈ 962 µM)
- Activity [4]: 12.22%
- Activity [5]: 1.41%
- inhibition [6]: inactive
- Activity [7]: 25.51%
- MIC [8]: 500 µg/mL (≈ 962 µM)
- MIC [9]: 500 µg/mL (≈ 962 µM)
- inhibition zone (IZ) [10]: 9 mm
- MIC [11]: 500 µg/mL (≈ 962 µM)
- inhibition zone (IZ) [12]: 9 mm
- inhibition zone (IZ) [13]: 10 mm
- MIC [14, 24]: 500 µg/mL (≈ 962 µM)
- MIC [15]: 500 µg/mL (≈ 962 µM)
- inhibition zone (IZ) [16]: 8 mm
- MIC [17]: 500 µg/mL (≈ 962 µM)
- inhibition zone (IZ) [18]: 9 mm
- MIC ([19]; MTCC 111, 24 h): 125 µg/mL (≈ 241 µM)
- inhibition zone (IZ) [20]: 8 mm
- inhibition zone (IZ) [21]: 9 mm
- MIC [22]: 500 µg/mL (≈ 962 µM)

Structure (SMILES): CN1C[C@](C#N)(C(=O)c2c[nH]c3ccccc23)[C@]2(C(=O)Nc3ccccc32)[C@@]12C(=O)Nc1ccc(Br)cc12
- inhibition zone (IZ) [1]: 10 mm
- inhibition zone (IZ) [2]: 11 mm
- MIC [3]: 500 µg/mL (≈ 883 µM)
- Activity [4]: 9.34%
- Activity [5]: 3.43%
- inhibition [6]: inactive
- Activity [7]: 15.98%
- MIC [8]: 500 µg/mL (≈ 883 µM)
- MIC [9]: 500 µg/mL (≈ 883 µM)
- inhibition zone (IZ) [10]: 11 mm
- MIC [11]: 500 µg/mL (≈ 883 µM)
- inhibition zone (IZ) [12]: 9 mm
- inhibition zone (IZ) [13]: 9 mm
- MIC [14, 24]: 125 µg/mL (≈ 221 µM)
- MIC [15]: 1000 µg/mL (≈ 1770 µM)
- inhibition zone (IZ) [16]: 15 mm
- MIC [17]: 250 µg/mL (≈ 441 µM)
- inhibition zone (IZ) [18]: 10 mm
- MIC [19]: inactive
- inhibition zone (IZ) [20]: 12 mm
- inhibition zone (IZ) [21]: 9 mm
- MIC [22]: 500 µg/mL (≈ 883 µM)

Structure (SMILES): CN1C(=O)[C@@]2(c3cc(Cl)ccc31)N(C)C[C@](C#N)(C(=O)c1c[nH]c3ccccc13)[C@]21C(=O)Nc2ccccc21
- inhibition zone (IZ) [1]: 11 mm
- inhibition zone (IZ) [2]: 9 mm
- MIC [3]: inactive
- Activity [4]: 12.98%
- Activity [5]: 3.76%
- inhibition [6]: inactive
- Activity [7]: 22.21%
- MIC [8]: 500 µg/mL (≈ 933 µM)
- MIC [9]: 500 µg/mL (≈ 933 µM)
- inhibition [10]: inactive
- MIC [11]: 125 µg/mL (≈ 233 µM)
- inhibition zone (IZ) [12]: 10 mm
- inhibition zone (IZ) [13]: 12 mm
- MIC [14, 24]: 500 µg/mL (≈ 933 µM)
- MIC [15]: 125 µg/mL (≈ 233 µM)
- inhibition zone (IZ) [16]: 9 mm
- MIC [17]: 125 µg/mL (≈ 233 µM)
- inhibition zone (IZ) [18]: 9 mm
- MIC ([19]; MTCC 111, 24 h): 125 µg/mL (≈ 233 µM)
- inhibition zone (IZ) [20]: 11 mm
- inhibition zone (IZ) [21]: 10 mm
- MIC [22]: 500 µg/mL (≈ 933 µM)
